# Structures can show the parent of a compound that is named as a salt.
# How the values were obtained:
# Assay type in all cases: physicochemical
# [1] = Chemical stability on storage: related substances by chromatogram comparison
# [2] = Physical stability on storage (precipitation / remaining in solution); conditions: for physical stability on storage: 5° C. storage; for Comment: physical stability on storage: 10% ractopamine
# [3] = Solubility determination of ractopamine HCl in liquid agents (visual, 1-dram vials)
# Protocol: Solubility determinations are performed in 1-dram vials. Add ractopamine HCl to a vial containing a liquid agent to give a final w/w ratio of 10% ractopamine HCl to liquid agent. Mix the solution vigorously on a vortex mixer for 2 to 6 minutes. After the mixing period, visually, assess whether the ractopamine dissolves in the liquid agent or whether insoluble material (cloudy solution or two distinct phases) remains in the vial. If the solubility is less than 10%, add additional liquid agent to dilute the ractopamine HCl to a 5-8% range. Repeat the mixing procedure and assess whether the ractopamine is soluble in the liquid agent or whether it remains insoluble at the lower concentration. Apply heat (from room temperature up to 60° C.) as needed to aid solubilization. Allow heated samples to cool to room temperature to assess solubility by visual observation for precipitant or cloudiness.
# [4] = Solubility of ractopamine (water, PG, PEG vehicle systems)
smiles,measurement,setting,value
CC(CCc1ccc(O)cc1)NCC(O)c1ccc(O)cc1 (stereo not drawn) [ractopamine],reaction with solvent,"[1]; PEG 200 / PEG 300 vehicle, not reversible under normal storage conditions",form covalently bonded related substances
same,new related substances,"[1]; aqueous PSL vehicle, storage up to 24 months at 25° C. and 12 months at 40° C.",< 0.2%
same,new related substances,"[1]; aqueous PSO vehicle, storage up to 24 months at 25° C.",< 0.2%
same,formation of new related substances during storage,"[1]; propylene glycol solutions, normal room temperature (~25° C.)",new related substances form slowly
same,physical stability on storage,"[2]; 10% ractopamine formulations, PSO to water below 50/50 w/w",precipitate out
same,physical stability on storage,"[2]; Ten percent ractopamine formulations, PCO to water below 50/50 w/w",precipitate out
same,solubility,[3]; PSL to water 50:50 w/w,greater than 10%
same,solubility,[4]; 100% propylene glycol (PG) or aqueous vehicle system containing PG,> 25 % w/w
same,solubility (capable of dissolving),"[4]; vehicle 50% PG and 50% water, 25° C.",at least 10%
same,concentration achievable in solution,"[4]; vehicle system containing PEG 200, PEG 300, or both",> 20%
CC(CCc1ccc(O)cc1)NCC(O)c1ccc(O)cc1 (stereo not drawn) [ractopamine HCl],Comment: stability,"[1]; Acetic Acid Glacial (50% solution), buffered 10% formulation, generation of new related subs in stability storage",Stability discontinued
same,Comment: stability,"[1]; Lactic Acid (85% solution), 10% formulation by heating and buffering pH, generation of new related subs in stability storage",Stability discontinued
same,Comment: new related sub peaks in stability studies,"[1]; MPEG solvents (MPEG 350, 550)",number of new related sub
same,Comment: reaction with solvent,"[1]; Methanol, forms methoxy ractopamine related substance",Methanol reacts with
same,Comment: new related sub peaks in stability studies,"[1]; PEG solvents (PEG 200, 300)",number of new related sub
same,Comment: new related substance peaks in stability studies,"[1]; Pluronic L61 to water at 50/50, 10% ractopamine",a number of new related
same,Comment: stability,"[1]; Propionic Acid (20% solution), generated a number of large related sub peaks",Stability discontinued -
same,Comment: physical stability on storage,"[2]; Polyoxyethylene 20 Sorbitan Monolaurate to water below 50/50, prolonged storage at 5° C.",below 50/50 precipitate after
same,Comment: physical stability on storage,"[2]; Polyoxyethylene-20-Sorbitan Monooleate to water below 50/50, prolonged storage at 5° C.",below 50/50 precipitate after
same,Comment: physical stability on storage,"[2]; Polyoxyl 35 Castor Oil to water at 50/50, short term (3 months) storage at 5° C.",somewhat viscous and precipitate
same,Solubility @ RT,"[3]; 1,3 Dioxolane",<5%
same,Solubility @ RT,[3]; 1-Butanol,<10%
same,Solubility @ RT,[3]; 1-Methyl-2-Pyrrolidinone (Pharmasolve),<5%
same,Solubility @ RT,[3]; 2-Pyrrolidone (2-Pyrol),≦5%
same,Solubility @ RT,[3]; 4-Methyl-1-3Dioxolane,<5%
same,Solubility @ RT,[3]; Acetaldehyde Phenethyl Propyl Acetal (Acetal R),<10%
same,Solubility @ RT,[3]; Acetic Acid Glacial (50% solution),≧10%
same,Solubility @ RT,[3]; Acetone,<10%
same,Solubility @ RT,[3]; Acetophenone,<10%
same,Solubility @ RT,"[3]; Agrimax 3 (2-pyrrolidinone, 1-Octyl 2-Pyrrolidinone, 1-Ethenylhexadecyl-, Homopolymer Sulfuric Acid Monododecyl Ester Sodium Salt)",<5%
same,Solubility @ RT,[3]; AgsolEx 8,<5%
same,Solubility @ RT,[3]; Amyl Acetate,<5%
same,Solubility @ RT,[3]; Aromatic 100,<5%
same,Solubility @ RT,[3]; Aromatic 200 (SC Solvent 200),<5%
same,Solubility @ RT,[3]; Benzoic Acid (0.3% solution),<10%
same,Solubility @ RT,[3]; Benzyl Alcohol,≧5%
same,Solubility @ RT,[3]; Block Copolymer Pluronic L31,≦10%
same,Solubility @ RT,"[3]; Block Copolymer Pluronic L61, 50/50 water",≧10%
same,Solubility @ RT,"[3]; Block Copolymer Pluronic L61, Neat (Viscous)",≦10%
same,Solubility @ RT,"[3]; Caprylic/Capric Triglycerides, BP, FP (Labrafac CC)",<5%
same,Solubility @ RT,[3]; Caprylic/capric triglyceride (Migylol 810),<8%
same,Solubility @ RT,[3]; Centrapour Clear Fry Oil,<5%
same,Solubility @ RT,[3]; Citric Acid (50% solution),<5%
same,Solubility @ RT,[3]; Corn Oil (Mazzola),<8%
same,Solubility @ RT,[3]; Cyclohexanone,<10%
same,Solubility @ RT,[3]; D-Gluconic Acid,<10%
same,Solubility @ RT,[3]; D-Glucuronic Acid (20% solution),<5%
same,Solubility @ RT,[3]; Dichloromethane,<10%
same,Solubility @ RT,[3]; Diethylene Glycol,≧10%
same,Solubility @ RT,[3]; Diethylenetriamine (DETA),≧10%
same,Solubility @ RT,[3]; Dimethyl Isosorbide,<8%
same,Solubility @ RT,[3]; Dipropylene glycol n-butyl ether,<10%
same,Solubility @ RT,[3]; Ethanolamine,≧10%
same,Solubility @ RT,[3]; Ethyl Acetate,<5%
same,Solubility @ RT,[3]; Ethyl Alcohol,<10%
same,Solubility @ RT,[3]; Ethyl Lactate,<5%
same,Solubility @ RT,[3]; Ethylene Glycol,≧10%
same,Solubility @ RT,[3]; Ethylenediamine,≧20%
same,Solubility @ RT,[3]; Forward DC,<5%
same,Solubility @ RT,[3]; Fumaric Acid,<5%
same,Solubility @ RT,[3]; Gamma Butylactone,<5%
same,Solubility @ RT,[3]; Glutamic Acid (20% solution),<5%
same,Solubility @ RT,[3]; Glycerol Formal,≦5%
same,Solubility @ RT,[3]; Glyceryl and polyethylene glycol esters (Labrasol),<5%
same,Solubility @ RT,[3]; Glycol Ether PM,<5%
same,Solubility @ RT,[3]; Hexane,<5%
same,Solubility @ RT,[3]; Hydroxypropyl β-Cyclodextrin (Trappsol),<10%
same,Solubility @ RT,[3]; Isophorone,<10%
same,Solubility @ RT,[3]; Isopropyl Myristrate (Emerest 2314),<8%
same,Solubility @ RT,[3]; L-Malic Acid (20% solution),<5%
same,Solubility @ RT,[3]; L-Tartaric Acid 20% solution,<5%
same,Solubility @ RT,[3]; Lactic Acid (85% solution),≦10%
same,Solubility @ RT,[3]; Maleic Acid (20% Solution),≦10%
same,Solubility @ RT,[3]; Malonic Acid,≧5%
same,Solubility @ RT,[3]; Medium chain triglyceride (Migylol 812),<8%
same,Solubility @ RT,[3]; Methanol,≧10%
same,Solubility @ RT,[3]; Methyl Caprylate-Caprate (Emery 2209),<8%
same,Solubility @ RT,[3]; Methyl Oleate (Emery 2301),<8%
same,Solubility @ RT,"[3]; Mineral Oil, QA246U",<5%
same,Solubility @ RT,[3]; Mono-diglyceride of caprylic/capric fatty acids (Capmul MCM),<8%
same,Solubility @ RT,"[3]; Monomethylated Polyethylene Glycol MPEG 350, 50/50 water",≧10%
same,Solubility @ RT,"[3]; Monomethylated Polyethylene Glycol MPEG 350, Neat",≦10%
same,Solubility @ RT,"[3]; Monomethylated Polyethylene Glycol MPEG 550, 50/50 water",≧10%
same,Solubility @ RT,"[3]; Monomethylated Polyethylene Glycol MPEG 550, Neat",≦10%
same,Solubility @ RT,"[3]; N,N, Dimethylacetamide",<5%
same,Solubility @ RT,"[3]; Nonylphenol Ethoxylate, POE-10 (Makon 10)",<5%
same,Solubility @ RT,[3]; Oleic Acid (Priolene 6933),<5%
same,Solubility @ RT,[3]; Oleoyl Macrogolglycerides EP (Labrafil M 1944 CS),<5%
same,solubility,[3]; PCO to water 50:50 w/w,greater than 10%
same,solubility,[3]; PSO to water 50:50 w/w,greater than 10%
same,Solubility @ RT,[3]; Petroleum Ether,<5%
same,Solubility @ RT,"[3]; Petroleum distillates (naphtha), Panasol AN-2K",<5%
same,Solubility @ RT,[3]; Phosphoric Acid (85% Solution),<5%
same,Solubility @ RT,[3]; Polyethylene Glycol Dimethyl Ether (DMPEG-350),<5%
same,Solubility @ RT,"[3]; Polyethylene Glycol PEG 200, 50/50 water",≧10%
same,Solubility @ RT,"[3]; Polyethylene Glycol PEG 200, Neat",≦10%
same,Solubility @ RT,"[3]; Polyethylene Glycol PEG 300, 50/50 water",≧10%
same,Solubility @ RT,"[3]; Polyethylene Glycol PEG 300, Neat",≦10%
same,Solubility @ RT,"[3]; Polyethylene Glycol PEG 400, Neat (Viscous)",≦10%
same,Solubility @ RT,[3]; Polyglycol P-2000,<5%
same,Solubility @ RT,"[3]; Polyoxyethylene-20-Sorbitan Monolaurate (Tween 20), 50/50 water",≧10%
same,Solubility @ RT,"[3]; Polyoxyethylene-20-Sorbitan Monolaurate (Tween 20), Neat (Viscous)",≦10%
same,Solubility @ RT,"[3]; Polyoxyethylene-20-Sorbitan Monooleate (Tween 80), 50/50 water",≧10%
same,Solubility @ RT,"[3]; Polyoxyethylene-20-Sorbitan Monooleate (Tween 80), Neat (Viscous)",≦10%
same,Solubility @ RT,"[3]; Polyoxyl 35 Castor Oil (Cremophor EL), 50/50 water",≧10%
same,Solubility @ RT,"[3]; Polyoxyl 35 Castor Oil (Cremophor EL), Neat (Viscous)",≦10%
same,Solubility @ RT,[3]; Propionic Acid (20% solution),≧10%
same,Solubility @ RT,[3]; Propylene Carbonate,<5%
same,Solubility @ RT,[3]; Propylene Glycol Laurate (Lauroglycol FCC),<5%
same,Solubility @ RT,[3]; Propylene glycol diester of caprylic/capric acid (Migylol 840),<8%
same,Solubility @ RT,[3]; Soybean Oil Methyl Ester (Soy Gold 2000),<8%
same,Solubility @ RT,[3]; Succinic Acid (5% Solution),<5%
same,Solubility @ RT,[3]; Sunflower Oil (Wesson),<8%
same,Solubility @ RT,[3]; Tetrahydrfurfuryl Alcohol (THFA),≦10%
same,Solubility @ RT,[3]; Tetrahydrofuran (THF),<10%
same,Solubility @ RT,[3]; Toulene,<10%
same,Solubility @ RT,[3]; Triacetin,<5%
same,Solubility @ RT,[3]; Trichloroethylene,<10%
same,Solubility @ RT,[3]; Triglyceride of caprylic/capric and succinic acid (Migylol 829),<8%
same,Solubility @ RT,[3]; β-Cyclodextrin Sulfbutyl Ether 7 Sodium Salt 20% Solution (Captisol),<10%

# Source: patent US7943670B2, “Liquid formulations of ractopamine” (Eli Lilly and Company, priority 2004, dated 2011)
